# Results as given in patent US20100317525A1, “HERBICIDAL MIXTURE” (E.I. DU PONT DE NEMOURS AND COMPANY, priority 2007, published 2010).
# Test system: Digitaria nuda
# Test: Test A: postemergence greenhouse control of Digitaria nuda, visual rating
# Format: in vivo
# Conditions: postemergence 3-4-leaf stage, 7 DAT, mean of 3 replicates
# Procedure: Plastic pots (10-cm square) were filled to the rim with a sandy loam soil having pH of 6.1, 1.4% organic matter and a cation exchange capacity (CEC) of 5.7 milliequivalents per 100 grams (meq/100 g). The soil was tamped firm to a uniform level of 2.5 cm below the rim of each pot. A measured amount of seeds of Digitaria nuda were scattered on the soil surface. Seeded pots were covered with approximately 50 mL of the same planting soil and tamped. The pots were then placed in a greenhouse and watered thoroughly 2-3 times daily as needed. A balanced fertilizer solution was injected into the watering system to provide 218 ppm of nitrogen. Artificial lighting was used to supplement natural light to produce a 14 h photoperiod. Greenhouse temperatures were targeted for 28.8 ° C. in the day and 19.8 ° C. at night.
# When the D. nuda plants reached the 3-4-leaf growth stage (8-12 cm height), the pots were sorted into test units for herbicide application. Treatments were replicated three times. The herbicides were diluted in a measured amount of water and then mixed using a magnetic stir bar for 10 minutes before aliquots were taken to make individual treatment solutions. Diuron was in the form of the DuPont product KARMEX, which is a wettable granule formulation containing 80 weight % active ingredient. Hexazinone was in the form of the DuPont product VELPAR DF, which is a wettable granule formulation containing 75 weight % active ingredient. A mixture of hexazinone and diuron in 11:39 weight ratio was in the form of the DuPont product VELPAR-K (VELPAR-K4) 60 WG, which is a wettable granule formulation containing 13.2 weight % hexazinone and 46.8 weight % diuron active ingredients. A mixture of hexazinone and diuron in 1:8 weight ratio was in the form of the DuPont product VELPAR-K8 (marketed in Brazil as ADVANCE Herbicide), which is a wettable granule formulation containing 6.7 weight % hexazinone and 53.3 weight % diuron active ingredients. Tembotrione was in the form of the Bayer product LAUDIS, which was a suspension concentrate formulation stated to contain […] tembotrione active ingredient and 22 g isoxadifen-ethyl (a herbicide safener) per liter. These products were applied alone and in combinations. Application rates of diuron and hexazinone were 1800 and 210 g ai ha^−1, respectively. The application rates of the VELPAR-K4 mixture of hexazinone and diuron (132 g a.i. hexazinone+468 g a.i. diuron/kg of formulated product) and VELPAR-K8 mixture of hexazinone and diuron (67 g a.i. hexazinone+533 g a.i. diuron/kg of formulated product) were 1200 and 1800 g total a.i. ha^−1, respectively. Application rates of tembotrione were 30, 60, 90 and 120 g a.i./ha. (“a.i.” means active ingredient.) The pots were then sprayed through a T-Jet 8002E nozzle using a stationary belt sprayer calibrated to deliver 281 L/ha at 276 kPa. Treatments were replicated three times.
# The plants were returned to the greenhouse, and then control was visually evaluated relative to the control plants at 7 days after treatment (DAT). A numerical percent rating system was used to describe the response observed from each treatment on a scale of 0 to 100%, in which 0% indicates no response and 100% indicates plant death or near death. The reported results are the mean averages of the three replicates.
# Colby's Equation was used to determine the herbicidal effects expected from the mixtures. […]
Structure (SMILES),% Control Observed (diuron 1800 g a.i./ha (as KARMEX)),% Control Observed (tembotrione 30 g a.i./ha (as LAUDIS)),% Control Observed (tembotrione 60 g a.i./ha (as LAUDIS)),% Control Observed (tembotrione 90 g a.i./ha (as LAUDIS)),% Control Observed (tembotrione 120 g a.i./ha (as LAUDIS))
"CN(C)C(=O)Nc1ccc(Cl)c(Cl)c1 [Diuron, N′(3,4-dichlorophenyl)-N,N-dimethylurea]",20%,–,–,–,–
"CS(=O)(=O)c1ccc(C(=O)C2C(=O)CCCC2=O)c(Cl)c1COCC(F)(F)F [Tembotrione, 2-[2-chloro-4-(methylsulfonyl)-3-[(2,2,2-trifluoroethoxy)methyl]-benzoyl]-1,3-cyclohexanedione]",–,37%,40%,53%,60%
